“And” between values parts separate entries of the source, which are not always exact repeats. Equal entries are not always repeated. Where two headings read alike, the source gives them in different places.
Experiments:
[1] = test system: SARS-CoV-2; experiment: microbe, parasite or virus in culture; format: cell-based; conditions: for %infected: HeLa-ACE2, replicate wells n=1-3
[2] = Uninfected HeLa-ACE2 24 h live/dead cytotoxicity counter screen; format: cell-based, human; conditions: human, uninfected HeLa-ACE2 cells
[3] = test system: HeLa-ACE2 cells; experiment: as above; format: cell-based, human; conditions: for cytotox: HeLa-ACE2, replicate wells n=1-3
[4] = test system: SARS-CoV-2; experiment: microbe, parasite or virus in culture; format: cell-based; conditions: for %infected: Calu-3, replicate wells n=1-3
[5] = test system: SARS-CoV-2; experiment: microbe, parasite or virus in culture; format: cell-based; conditions: for TOA: HeLa-ACE2, replicate wells n=1-3
[6] = test system: HeLa-ACE2 cells; experiment: cells; conditions: Homo sapiens
[7] = test system: Calu-3 cells; experiment: cells; conditions: Homo sapiens
[8] = Uninfected Calu-3 48 h Cell-Titer Glo cytotoxicity counter screen; conditions: human, uninfected Calu-3 cells, cytotoxicity CC50, uninfected Calu-3, geomean
[9] = test system: Calu-3 cells; experiment: as above; conditions: for cytotox: Calu-3, replicate wells n=1-3
[10] = test system: HeLa-ACE2 cells; experiment: Total cell count in the HeLa-ACE2 TOA assay; format: cell-based; conditions: Homo sapiens
From the text: Supplement 41467_2021_23328_MOESM3_ESM.xlsx, sheet "Table S1" | column: HeLa-ACE2 TOA cell count

[11] = in vitro; conditions: human, Calu-3 uninfected cytotoxicity CC50 GeoMean
[12] = test system: HepG2; experiment: HepG2 72 h CellTiter-Glo cytotoxicity; conditions: 72 h
[13] = test system: HEK293T; experiment: HEK293T 72 h CellTiter-Glo cytotoxicity; conditions: 72 h
[14] = curve plateau at infinite concentration

SMILES: COc1ccc(C[C@H](N)C(=O)N[C@H]2[C@@H](O)[C@H](n3cnc4c(N(C)C)ncnc43)O[C@@H]2CO)cc1 [Puromycin]
- EC50 ([1]; HeLa-ACE2, individual values of 9 independent experiments, read-out: EC50 (µM), Fig 1c): 0.435 µM and 0.38 µM and 0.598 µM and 0.621 µM and 0.45 µM and 0.531 µM and 0.521 µM and 0.566 µM and 0.31 µM
- %infected ([1]; concentration log[M] -5.017): -100.174% and -66.1982% and -101.885% and -101.158% and -100.229% and -100.414% and -100.159% and -100.524% and -100%
- %infected ([1]; concentration log[M] -5.4942): -100.174% and -93.9019% and -89.6683% and -95.454% and -98.8405% and -100.414% and -93.5473% and -100.524% and -98.8065%
- %infected ([1]; concentration log[M] -5.9713): -100.174% and -98.3678% and -99.6425% and -99.9897% and -99.6057% and -100.414% and -99.8612% and -100.183% and -99.7407%
- %infected ([1]; concentration log[M] -6.4484): 1.313%
- EC50 ([1]; Severe acute respiratory syndrome coronavirus 2, HeLa-ACE2, HeLa-ACE2, MOI 0.09, read-out: EC50): 0.52 µM
- EC50 ([1]; Severe acute respiratory syndrome coronavirus 2, HeLa-ACE2, HeLa-ACE2, MOI 0.26, read-out: EC50): 0.433 µM
- EC50 ([1]; Severe acute respiratory syndrome coronavirus 2, HeLa-ACE2, HeLa-ACE2, MOI 0.51, read-out: EC50): 0.43 µM
- EC50 ([1]; Severe acute respiratory syndrome coronavirus 2, HeLa-ACE2, HeLa-ACE2, MOI 1.1, read-out: EC50): 0.431 µM
- EC50 ([1]; Severe acute respiratory syndrome coronavirus 2, HeLa-ACE2, HeLa-ACE2, MOI 2.2, read-out: EC50): 0.455 µM
- EC50 ([1]; Severe acute respiratory syndrome coronavirus 2, HeLa-ACE2, HeLa-ACE2, geomean, read-out: SARS-CoV-2 EC50): 0.48 µM
- CC50 at 24 h ([2]; geomean, read-out: uninfected HeLa-ACE2 cytotoxicity CC50): 658 nM
- cytotox ([3]; concentration log[M] -4.39794): -100 (5×) and -99.957 and -100.055 and -99.8917 and -99.5551
- cytotox ([3]; concentration log[M] -4.87506): -100 (5×) and -100.043 and -100.055 and -99.8917 and -99.8888
- cytotox ([3]; concentration log[M] -5.35218): -99.2405 and -100.043 and -100 and -99.7082 and -99.8513 and -99.7143 and -99.834 and -99.8917 and -99.8888
- cytotox ([3]; concentration log[M] -5.8293): -94.5992 and -94.54 and -94.2197 and -97.5201 and -91.5242 and -94.1429 and -95.9602 and -98.5916 and -99.2214
- cytotox ([3]; concentration log[M] -6.30643): -16.5401 and -18.2717 and -10.2395 and -53.9023 and -53.9033 and -44.2857 and -37.078 and -52.3294 and -37.5973
- cytotox ([3]; concentration log[M] -6.78355): -2.194 and 3.482 and 5.615 and -5.9081 and 6.4684 and -6.286 and -2.656 and 2.0585 and 1.78
- cytotox ([3]; concentration log[M] -7.26067): 9.198 and 8.212 and 13.6251 and -16.9949 and 6.9145 and -11.5714 and 1.66 and 4.117 and 13.2369
- cytotox ([3]; concentration log[M] -7.73779): 5.148 and 2.193 and 2.395 and 7.367 and 9.294 and 9.714 and 11.1787 and -1.625 and 6.897
- %infected ([4]; concentration log[M] -5): -95.8583% and -98.0315% and -98.6862% and -95.9501% and -76.0417% and -82.6326% and -93.9332% and -99.6609% and -93.5404%
- %infected ([4]; concentration log[M] -5.47712): -67.9332% and -73.9862% and -77.2001% and -69.7882% and -47.5028% and -51.8982% and -50.0755% and -50.9352% and -58.0559%
- %infected ([4]; concentration log[M] -5.95424): -28.7555% and -23.4276% and -35.8088% and -33.2702% and 12.7351% and -26.1199% and 1.582% and -3.868% and -16.5101%
- %infected ([4]; concentration log[M] -6.43136): -8.682% and 16.1023% and -10.697% and 2.701% and -30.2762% and -2.034% and 9.733% and 3.624% and 18.0604%
- %infected ([4]; concentration log[M] -6.90849): 14.8237% and -16.8235% and 10.3561% and -2.261% and -10.1676% and -3.437% and 1.061% and 10.2779% and -14.1014%
- %infected ([4]; concentration log[M] -7.38561): 9.109% and 11.8626% and -0.1312% and 10.7467% and -22.0858% and 7.736% and -8.662% and -8.078% and 8.576%
- %infected ([4]; concentration log[M] -7.86273): -4.7462% and 13.3419% and -1.416% and -3.878% and 20.4436% and -1.961% and -6.536% and -8.873% and -15.4821%
- %infected ([4]; concentration log[M] -8.33985): 2.5816% and -20.6025% and -3.165% and -4.091% and -15.6383% and 9.983% and 19.7898% and 7.961% and 5.366%
- EC50 ([4]; Severe acute respiratory syndrome coronavirus 2, Calu-3, Calu-3, geomean, read-out: SARS-CoV-2 EC50): 2740 nM
- TOA ([5]; concentration log[M] -5.017): -102.365 and -102.878 and -104.791 and -98.49 and -99.8269 and -99.8889 and -98.5459 and -89.5564 and -100
- TOA ([5]; concentration log[M] -5.4942): -102.562 and -103.725 and -107.111 and -95.8769 and -99.8786 and -99.7495 and -98.3444 and -97.4941 and -99.8965
- TOA ([5]; concentration log[M] -5.9713): -102.27 and -103.614 and -103.314 and -96.7138 and -100 (3×) and -98.3433 and -92.9164
- TOA ([5]; concentration log[M] -6.4484): -6.41 and -22.1743 and -1.526 and -76.305 and -86.1829 and -83.03 and -58.994 and -58.9112 and -89.0793
- TOA ([5]; concentration log[M] -6.9255): -12.6152 and -14.5357 and 3.304 and -16.4877 and -30.7409 and -13.5207 and -8.881 and -3.253 and -32.0225
- TOA ([5]; concentration log[M] -7.4026): -1.409 and 2.055 and 2.822 and -9.903 and -4.893 and -5.119 and -5.9163 and -2.505 and -5.006
- TOA ([5]; concentration log[M] -7.8798): -0.7005 and -1.372 and 4.453 and -4.998 and -0.516 and 2.028 and -14.3841 and -2.585 and -13.6565
- EC50 ([5]; Severe acute respiratory syndrome coronavirus 2, HeLa-ACE2, fixed 10 hpi, geomean, read-out: CoV-2 TOA EC50): 316 nM
- EC50 ([6]; HeLa-ACE2, read-out: cell count in infection assay EC50, HeLa-ACE2, geomean, ^↑ = increasing dose-response curve): 1550 nM
- EC50 ([7]; Calu-3, read-out: cell count EC50, Calu-3, geomean, ^↑ = increasing dose-response curve): > 10000 nM
- CC50 at 48 h [8]: 3950 nM
- cytotox ([9]; concentration log[M] -4.52288): -100.931 and -99.9022 and -95.4488 and -97.7263 and -96.8224 and -101.443 and -97.7214 and -100.308 and -97.0229
- cytotox ([9]; concentration log[M] -5): -80.4262 and -81.4732 and -68.7172 and -83.9318 and -82.4069 and -88.2536 and -90.1262 and -91.0255 and -86.7764
- cytotox ([9]; concentration log[M] -5.47712): -21.5211 and -21.4754 and -12.3695 and -29.1257 and -36.4975 and -41.3268 and -49.2553 and -54.1555 and -56.8603
- cytotox ([9]; concentration log[M] -5.95424): -2.83 and -11.281 and -7.043 and -17.8087 and -13.674 and -31.1214 and -23.8075 and -33.8515 and -29.7354
- cytotox ([9]; concentration log[M] -6.43136): 2.078 and 1.682 and 8.441 and -6.555 and 0.06053 and -11.5086 and -12.2093 and -0.8504 and -4.056
- cytotox ([9]; concentration log[M] -6.90848): 3.604 and 1.518 and 9.871 and 2.227 and 16.0597 and -0.8904 and 5.168 and 1.586 and 4.2472
- cytotox ([9]; concentration log[M] -7.38561): 8.858 and -2.4064 and 3.577 and 15.479 and 1.71 and -0.4894 and 11.4275 and 7.753 and 11.1753
- cytotox ([9]; concentration log[M] -7.86273): 1.729 and -14.6095 and -2.223 and 9.032 and 7.858 and -12.5661 and -1.561 and 2.663 and 8.58

SMILES: CCC(CC)COC(=O)[C@H](C)NP(=O)(OC[C@H]1O[C@@](C#N)(c2ccc3c(N)ncnn23)[C@H](O)[C@@H]1O)Oc1ccccc1 (stereo partly drawn) [Remdesivir - control]
- Emax ([1]; Severe acute respiratory syndrome coronavirus 2, HeLa-ACE2, 24 h, curve plateau at infinite concentration, read-out: HeLa-ACE2 CoV-2 Sinf Average): 100%
- EC50 ([1]; Severe acute respiratory syndrome coronavirus 2, HeLa-ACE2, detail column, read-out: HeLa-ACE2 CoV-2 EC50 GeoMean): 0.123 µM
- CC50 at 24 h ([2]; read-out: HeLa-ACE2 uninfected cytotoxicity CC50 GeoMean): > 9670 nM
- HeLa-ACE2 uninfected cytotoxicity Sinf Average [3, 14]: -98%
- Emax ([4]; Severe acute respiratory syndrome coronavirus 2, Calu-3, 48 h, curve plateau at infinite concentration, read-out: Calu-3 CoV-2 Sinf Average): 100%
- EC50 ([4]; Severe acute respiratory syndrome coronavirus 2, Calu-3, detail column, read-out: Calu-3 CoV-2 EC50 GeoMean): 444 nM
- Emax ([5]; Severe acute respiratory syndrome coronavirus 2, HeLa-ACE2, 10 h, curve plateau at infinite concentration, read-out: HeLa-ACE2 TOA CoV-2 Sinf Average): 101%
- EC50 ([5]; Severe acute respiratory syndrome coronavirus 2, HeLa-ACE2, read-out: HeLa-ACE2 TOA CoV-2 EC50 GeoMean): 770 nM
- Emax ([10]; HeLa-ACE2, 10 h, curve plateau at infinite concentration, read-out: HeLa-ACE2 TOA cell count Sinf Average): 100%
- EC50 ([10]; HeLa-ACE2, read-out: HeLa-ACE2 TOA cell count EC50 GeoMean): > 2400 nM
- Emax ([6]; HeLa-ACE2, 24 h, read-out: HeLa-ACE2 cell count Sinf Average): -42%
- EC50 ([6]; HeLa-ACE2, read-out: HeLa-ACE2 cell count EC50 GeoMean): > 1200 nM
- Emax ([7]; Calu-3, 48 h, read-out: Calu-3 cell count Sinf Average): 101%
- EC50 ([7]; Calu-3, read-out: Calu-3 cell count EC50 GeoMean): 537 nM
- CC50 [11]: > 30000 nM
- HepG2 72-hour cytotoxicity Sinf Average [12]: -100%
- HEK293T 72-hour cytotoxicty Sinf Average [13]: -95%
- Calu-3 uninfected cytotoxicity Sinf Average [9, 14]: -100%
